Measurements as given in article PMC12113730 (Microorganisms, 2025).
Read-outs that look alike come from different tables or passages of the source. Ends that are not written are not given here.

Key:
[1] = in vitro; settings: both, human, 10-fold diluted pooled whole saliva supernatant (WSS)
Protocol: (§4) After an informed consent was obtained from all participants, stimulated whole saliva (WS) samples were collected from healthy, non-smoking adult male and female volunteers ranging from 25 to 39 years old. WS was obtained for three volunteers with good general oral health who were not taking medications that could alter their salivary flow and was performed as described previously in [29, 39]. Salivary secretion was stimulated by chewing a piece of Parafilm wax. WS was collected between 9 and 11 am, at least 2 h after the last meal. The salivary secretion was collected using a collecting tube that was kept on ice until obtaining 5.0 mL. The total volume of collected saliva was centrifuged at 4500× g (Sorvall™ ST 16 Centrifuge—Thermo Fisher Scientific, Waltham, MA, USA) at 4 °C for a period of 30 min to separate bacteria, cells and residues. The total whole saliva pellet and the total whole saliva supernatant (WSS) were separated, and the WSS was pooled and used for the degradation assay.
(§5) To assess and compare proteolysis degradation in the WS environment, all the peptides were added to WSS to observe their degradation over time by cationic-PAGE and HPLC. To investigate the degradation of each peptide, 50 µg mL^−1 of synthetic peptides 0WHst5, WP113, 8WH5, 7WH5 and 6WH5 were added to 10-fold diluted WSS. After 0, 0.5, 1.5, 4, 6, 8, 24 and 48 h of incubation, two aliquots of 100 µL were removed (one for the cationic-PAGE analysis another for HPLC analysis). After that, the aliquots were boiled for 5 min to terminate proteolytic activity. Subsequently the aliquots were diluted in a buffer containing 80% acetonitrile/19.9% H2O/0.1% trifluoroacetic acid, dried using a Vacufuge concentrator (Eppendorf, Westbury, NY, USA) and desalted using ZipTip® Pipette Tips (Merk, Rahway, NJ, USA) to concentrate and purify the samples [29].
(§6) For the cationic-PAGE, the aliquots were dried using a Vacufuge concentrator and resuspended in sample buffer containing 0.04% methyl green (Thermo Fisher Scientific, Waltham, MA, USA) in 40% sucrose. Then, 5 μg of each peptide was used as standard for the test. The stacking and separation gels were polymerized using 100 W incandescent light for 9 min each and the electrophoresis was carried out at a constant voltage of 120 V. The gels were stained with 0.1% Coomassie brilliant blue (w/v), 8% methanol (v/v) and 7% acetic acid (v/v) overnight with agitation. Destaining was carried out with 40% methanol, 10% acetic acid and 50% water (v/v). The extent of degradation was quantified by Image Lab using the relative quantity tool.

[2] = cationic-PAGE; for Time at which the band was no longer observed in the gel (total/complete degradation) / Band of the peptide in the gel at 8 h (in words): 50 µg mL^-1 peptide in 10-fold diluted human WSS; for Peptide remaining (band quantification): 0 h, 50 µg mL^-1 peptide in 10-fold diluted pooled human WSS, Coomassie, Image Lab relative quantity, mean ± SD, duplicate samples
Protocol: as §4, §5, §6

[3] = tested on: C. albicans ATCC 90028; settings: ATCC 90028, 48 h, 20 µmol L^-1
Protocol: (§1) For the antifungal tests, the strains C. albicans ATCC 90028, C. albicans ATCC 18804 and C. albicans ATCC 10231 were donated by the National Institute of Quality Control in Health (INCQS—Fundação Oswaldo Cruz—Fiocruz, Rio de Janeiro, Brazil). To prepare C. albicans for the tests, the lyophilized microorganism was initially reactivated in Sabouraud Dextrose Broth (Kasvi, Pinhais, Brazil) and incubated at 37 °C for 24 h. Then, the yeasts were seeded in Sabouraud Dextrose Agar and incubated for 48 h at 37 °C. Finally, the stock culture obtained was stored in a refrigerator at 4 °C for 3 months.
(§2) To prepare the standardized suspensions, some colonies of C. albicans stock cultures were seeded in Sabouraud Dextrose Broth and incubated for 24 h at 37 °C. After this time, a small aliquot of the inoculum was transferred to sterile Sabouraud Dextrose Broth to obtain a suspension with optical density (OD) between 0.10 and 0.15 (530 nm), with approximate concentration of 1 × 10^6 CFU mL^−1 [34, 35]. Finally, the suspension was diluted to obtain a concentration of 1 × 10^3 CFU mL^−1, which was used in the tests described below.
(§3) The antifungal activity tests were performed using broth microdilution. The broth microdilution was performed as described in the M27-A3 document of Clinical and Laboratory Standards Institute (CLSI) with modifications. The medium used was Sabouraud Dextrose Broth (SDB). The synthetic peptides were dissolved in a Tris·HCl 10 mM pH 7.2 buffer and added to the plate containing SDB for a final concentration in the first well of 160 µmol L^−1. The cell suspension was prepared as described under “Microorganisms and growth conditions”. This suspension was inoculated on a microdilution plate previously prepared with the peptides diluted in a concentration range from 160 to 0.31 µmol L^−1. The control drug used was fluconazole (FLU), diluted in deionized water. The plates were incubated at 37 °C for 48 h and at the end of the incubation time, the OD in each well was read in a spectrophotometer at 595 nm. The test was performed in triplicate for each of the strains.

[4] = tested on: C. albicans ATCC 18804; settings: ATCC 18804, 48 h
Protocol: as §1, §2, §3

[5] = tested on: C. albicans; settings: some species of C. albicans; cited from earlier work
Source text: High levels of Hst5 were found in the saliva of patients with periodontal and oral fungal infections.

[6] = for HPLC peak of intact peptide after 8 h (in words): 50 µg mL^-1 peptide in 10-fold diluted human WSS, RP-HPLC C18, UV 280 nm; for Time after which the peptide was still found in the samples in whole saliva: abstract, cationic-PAGE and HPLC assays
Protocol: as §4
To assess and compare proteolysis degradation in the WS environment, all the peptides were added to WSS to observe their degradation over time by cationic-PAGE and HPLC. […] After 0, 0.5, 1.5, 4, 6, 8, 24 and 48 h of incubation, two aliquots of 100 µL were removed (one for the cationic-PAGE analysis another for HPLC analysis). After that, the aliquots were boiled for 5 min to terminate proteolytic activity. Subsequently the aliquots were diluted in a buffer containing 80% acetonitrile/19.9% H2O/0.1% trifluoroacetic acid, dried using a Vacufuge concentrator (Eppendorf, Westbury, NY, USA) and desalted using ZipTip® Pipette Tips (Merk, Rahway, NJ, USA) to concentrate and purify the samples [29].
The aliquots collected for the HPLC analysis were also dried, desalted and resuspended in 30 μL of 10 mM Tris·HCl pH 7.2 buffer solution. Then, 30 µL was analyzed by HPLC in analytical mode using a Waters Symmetry® C18 5 µm, 4.6 × 250 mm reverse phase column (Part No. WAT054275) (Waters, Milford, MA, USA). The solvents used were all chromatographic grade (purchase from Sigma-Aldrich®, St. Louis, MO, USA) and the water used was ultrapure. The chromatographic conditions were solvents A (0.045% TFA/H2O) and B (0.036% TFA/ACN), in a gradient of 5% to 95% B in 30 min, with a flow of 0.53 mL min^−1 at a detector wavelength of 280 nm, using a Waters Alliance 2695 HPLC connected to a Waters 2996 photodiode array detector (Waters, Milford, MA, USA).

[7] = tested on: C. albicans ATCC 10231 (fluconazole-resistant); settings: fluconazole-resistant strain, Sabouraud Dextrose Broth, 37 °C, 48 h, OD 595 nm, triplicate
Protocol: as §1, §2, §3

Compound	remaining at 0.5 h, 50 µg mL^-1 [1] [%]	Time at which the band was no longer observed in the gel (total/complete degradation) [2] [h]	Inhibition of C. albicans ATCC 90028 [3] [%]	Inhibition of C. albicans ATCC 18804 ([4]; 20 µmol L^-1)	Minimum inhibitory concentration (MIC) [5] [µg/mL]	remaining at 4 h, 50 µg mL^-1 [1] [%]	Peptide remaining (band quantification) [2] [%]	HPLC peak of intact peptide after 8 h (in words) [6]	remaining at 6 h, 50 µg mL^-1 [1] [%]	remaining at 8 h, 50 µg mL^-1 [1] [%]	remaining at 24 h, 50 µg mL^-1 [1] [%]	remaining at 48 h, 50 µg mL^-1 [1] [%]	Band of the peptide in the gel at 8 h (in words) [2]	Time after which the peptide was still found in the samples in whole saliva [6] [h]	Inhibition of C. albicans ATCC 18804 ([4]; 80 µmol L^-1)	Inhibition of C. albicans ATCC 18804 ([4]; 160 µmol L^-1)	Inhibition of C. albicans ATCC 10231 ([7]; peptide 160 µmol L^-1) [%]	Inhibition of growth of C. albicans ATCC 10231 ([7]; peptide 40 µmol L^-1) [%]	Inhibition of C. albicans ATCC 18804 ([4]; 40 µmol L^-1)
C[C@H](NC(=O)[C@H](Cc1c[nH]cn1)NC(=O)[C@H](CO)NC(=O)[C@H](CC(=O)O)NC(=O)[C@@H](N)Cc1c[nH]c2ccccc12)C(=O)N[C@@H](CCCCN)C(=O)N[C@@H](CCCNC(=N)N)C(=O)N[C@@H](Cc1c[nH]cn1)C(=O)N[C@@H](Cc1c[nH]cn1)C(=O)NCC(=O)N[C@@H](Cc1ccc(O)cc1)C(=O)N[C@@H](CCCCN)C(=O)N[C@@H](CCCNC(=N)N)C(=O)N[C@@H](CCCCN)C(=O)N[C@@H](Cc1ccccc1)C(=O)N[C@@H](Cc1c[nH]cn1)C(=O)N[C@@H](CCC(=O)O)C(=O)N[C@@H](CCCCN)C(=O)N[C@@H](Cc1c[nH]cn1)C(=O)N[C@@H](Cc1c[nH]cn1)C(=O)N[C@@H](CO)C(=O)N[C@@H](Cc1c[nH]cn1)C(=O)N[C@@H](CCCNC(=N)N)C(=O)NCC(=O)N[C@@H](Cc1ccc(O)cc1)C(=O)O [Peptide 0WHst5]	91 ± 17	≤ 4	75	greater than 80%	–	–	–	–	–	–	–	–	–	–	–	–	–	–	–
Histatin 5 [Hst5]	–	–	–	–	8 to 16	–	–	–	–	–	–	–	–	–	–	–	–	–	–
WAKRHHGYKRKFH [WP113]	89.5 ± 7.3	> 4	76	–	–	7.23 ± 8.17	100.0 ± 0.0	disappeared	–	–	–	–	–	–	–	–	–	–	–
WKRHHGY [Peptide 6WH5]	98.8 ± 1.1	–	–	–	–	79.3 ± 9.8	100.0 ± 0.0	still detectable	52.4 ± 7	30.6 ± 4	16.5 ± 5.9	8.3 ± 6.2	possible to visualize the band	≥ 8	above 70%	greater than 80%	–	–	–
WKRHHGYK [Peptide 7WH5]	100 ± 4.5	–	–	–	–	86.2 ± 3.1	100.0 ± 0.0	still detectable	55.9 ± 5.8	49.6 ± 2.4	19.1 ± 7.5	6.9 ± 1	possible to visualize the band	≥ 8	greater than 80%	–	90.9	–	–
WKRHHGYKR [Peptide 8WH5]	99.9 ± 8	–	–	–	–	80.3 ± 13	100.0 ± 0.0	still detectable	62 ± 8.4	44.2 ± 0.9	8.6 ± 4.4	3.5 ± 0.8	possible to visualize the band	≥ 8	–	–	–	85	greater than 80%
